Results reported in patent US10597388B2, “Pyridazinone herbicides” (FMC CORPORATION, priority 2014, dated 2020).

How the values were obtained:
Experiment in all cases: Test D controlled growth environment herbicide test, pre- and postemergence
Assay type in all cases: in vivo
[1] = tested on: wheat, spring (spring wheat, Triticum aestivum); conditions: for Wheat, Spring plant response rating / Plant response rating (scale of 0 to 100), Wheat, Spring: 31 g ai/ha
Method in brief: (§1)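 Species sown in silt loam and sprayed preemergence, or grown in peat-based medium to 2–18 cm (1- to 4-leaf stage) and sprayed postemergence, with compounds in non-phytotoxic solvent plus surfactant. Visual injury scored versus controls after 14–21 d in a controlled environment, 0 (no effect) to 100 (complete control).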

[2] = tested on: blackgrass (Alopecurus myosuroides); conditions: for Blackgrass plant response rating / Plant response rating (scale of 0 to 100), Blackgrass: 31 g ai/ha
Method in brief: as §1

[3] = tested on: radish, wild (wild radish, Raphanus raphanistrum); conditions: for Radish, Wild plant response rating / Plant response rating (scale of 0 to 100), Radish, Wild: 31 g ai/ha
Method in brief: as §1

[4] = tested on: ryegrass, Italian (Italian ryegrass, Lolium multiflorum); conditions: for Ryegrass, Italian plant response rating / Plant response rating (scale of 0 to 100), Ryegrass, Italian: 31 g ai/ha
Method in brief: as §1

[5] = tested on: oilseed rape (Brassica napus); conditions: for Oilseed Rape plant response rating / Plant response rating (scale of 0 to 100), Oilseed Rape: 31 g ai/ha
Method in brief: as §1

[6] = tested on: pigweed (Amaranthus retroflexus); conditions: for Pigweed plant response rating / Plant response rating (scale of 0 to 100), Pigweed: 31 g ai/ha
Method in brief: as §1

[7] = tested on: chickweed (common chickweed, Stellaria media); conditions: for Chickweed plant response rating / Plant response rating (scale of 0 to 100), Chickweed: 31 g ai/ha
Method in brief: as §1

[8] = tested on: field poppy (Papaver rhoeas); conditions: for Field Poppy plant response rating / Plant response rating (scale of 0 to 100), Field Poppy: 31 g ai/ha
Method in brief: as §1

[9] = tested on: deadnettle (henbit deadnettle, Lamium amplexicaule); conditions: for Deadnettle plant response rating / Plant response rating (scale of 0 to 100), Deadnettle: 31 g ai/ha
Method in brief: as §1

[10] = tested on: windgrass (Apera spica-venti); conditions: for Windgrass plant response rating / Plant response rating (scale of 0 to 100), Windgrass: 31 g ai/ha
Method in brief: as §1

[11] = tested on: wheat, winter (winter wheat, Triticum aestivum); conditions: for Wheat, Winter plant response rating / Plant response rating (scale of 0 to 100), Wheat, Winter: 31 g ai/ha
Method in brief: as §1

[12] = tested on: Russian thistle (Salsola kali); conditions: for Russian Thistle plant response rating / Plant response rating (scale of 0 to 100), Russian Thistle: 31 g ai/ha
Method in brief: as §1

[13] = tested on: field violet (Viola arvensis); conditions: for Field Violet plant response rating / Plant response rating (scale of 0 to 100), Field Violet: 31 g ai/ha
Method in brief: as §1

[14] = Postemergence, scale 0 to 100 (0 no effect, 100 complete control)
[15] = Postemergence, 125 g ai/ha, visual rating on scale 0 (no effect) to 100 (complete control), 14 to 21 d
[16] = Postemergence, 250 g ai/ha, scale 0 to 100 (0 no effect, 100 complete control)
[17] = Preemergence, 62 g ai/ha, scale 0 to 100 (0 no effect, 100 complete control)
[18] = Preemergence, 125 g ai/ha, scale 0 to 100 (0 no effect, 100 complete control)
[19] = Preemergence, 250 g ai/ha, scale 0 to 100 (0 no effect, 100 complete control)
[20] = postemergence, 62 g ai/ha, scale 0 to 100, 0 no effect, 100 complete control

CCOC(=O)Oc1c(C)nn(C)c(=O)c1-c1c(C)ccc2ccccc12 [Compound 73]
10: Plant response rating (scale of 0 to 100), Russian Thistle ([12]; Preemergence)
25: Wheat, Winter plant response rating [11, 14] | Plant response rating, Russian Thistle [12, 17]
80: Plant response rating, Blackgrass [2, 15] | Plant response rating, Blackgrass [2, 18] | Plant response rating, Russian Thistle [12, 15] | Plant response rating, Russian Thistle [12, 20] | Plant response rating, Field Violet [13, 18]
100: Plant response rating, Radish, Wild [3, 15] | Plant response rating, Radish, Wild [3, 16] | Plant response rating, Radish, Wild [3, 18] | Plant response rating, Ryegrass, Italian [4, 17] | Plant response rating, Ryegrass, Italian [4, 18] | Plant response rating, Ryegrass, Italian [4, 19] | Pigweed plant response rating [6, 14] | Plant response rating, Pigweed [6, 15] | Plant response rating, Pigweed [6, 16] | Plant response rating, Pigweed [6, 17] | Plant response rating, Pigweed [6, 18] | Plant response rating, Pigweed [6, 19] | Plant response rating, Pigweed [6, 20] | Plant response rating, Chickweed [7, 15] | Plant response rating, Chickweed [7, 16] | Plant response rating, Chickweed [7, 18] | Plant response rating, Chickweed [7, 19] | Plant response rating, Field Poppy [8, 15] | Plant response rating, Field Poppy [8, 16] | Plant response rating, Field Poppy [8, 17] | Plant response rating, Field Poppy [8, 18] | Plant response rating, Field Poppy [8, 19] | Plant response rating, Field Poppy [8, 20] | Plant response rating, Deadnettle [9, 15] | Plant response rating, Deadnettle [9, 16] | Plant response rating, Deadnettle [9, 19]
30: Plant response rating (scale of 0 to 100), Radish, Wild ([3]; Preemergence)
50: Plant response rating (scale of 0 to 100), Blackgrass ([2]; Preemergence) | Plant response rating, Wheat, Winter [11, 18]
85: Plant response rating, Wheat, Spring [1, 16] | Plant response rating, Wheat, Spring [1, 19] | Plant response rating, Blackgrass [2, 19] | Plant response rating, Ryegrass, Italian [4, 20] | Plant response rating, Windgrass [10, 16] | Plant response rating, Russian Thistle [12, 16]
98: Plant response rating, Ryegrass, Italian [4, 16]
65: Blackgrass plant response rating [2, 14] | Oilseed Rape plant response rating [5, 14] | Plant response rating, Windgrass [10, 17] | Plant response rating, Wheat, Winter [11, 15]
15: Plant response rating (scale of 0 to 100), Wheat, Spring ([1]; Preemergence) | Plant response rating (scale of 0 to 100), Wheat, Winter ([11]; Preemergence)
0: Plant response rating (scale of 0 to 100), Oilseed Rape ([5]; Preemergence) | Plant response rating, Oilseed Rape [5, 18] | Plant response rating (scale of 0 to 100), Deadnettle ([9]; Preemergence) | Plant response rating, Deadnettle [9, 17]
90: Plant response rating, Blackgrass [2, 16] | Plant response rating, Radish, Wild [3, 19] | Chickweed plant response rating [7, 14] | Plant response rating, Chickweed [7, 17] | Plant response rating, Deadnettle [9, 20] | Plant response rating, Windgrass [10, 18] | Field Violet plant response rating [13, 14] | Plant response rating, Field Violet [13, 15] | Plant response rating, Field Violet [13, 16]
95: Plant response rating, Radish, Wild [3, 20] | Plant response rating, Ryegrass, Italian [4, 15] | Plant response rating (scale of 0 to 100), Ryegrass, Italian ([4]; Preemergence) | Plant response rating, Oilseed Rape [5, 16] | Plant response rating (scale of 0 to 100), Chickweed ([7]; Preemergence) | Plant response rating, Chickweed [7, 20] | Plant response rating, Windgrass [10, 19] | Plant response rating, Field Violet [13, 19] | Plant response rating, Field Violet [13, 20]
55: Plant response rating, Wheat, Spring [1, 17] | Plant response rating, Wheat, Spring [1, 20]
75: Radish, Wild plant response rating [3, 14] | Plant response rating, Radish, Wild [3, 17] | Plant response rating, Oilseed Rape [5, 15] | Field Poppy plant response rating [8, 14] | Deadnettle plant response rating [9, 14] | Plant response rating, Windgrass [10, 15] | Plant response rating, Wheat, Winter [11, 16] | Plant response rating, Wheat, Winter [11, 19] | Russian Thistle plant response rating [12, 14] | Plant response rating, Russian Thistle [12, 19] | Plant response rating, Field Violet [13, 17]
40: Plant response rating (scale of 0 to 100), Windgrass ([10]; Preemergence) | Plant response rating, Wheat, Winter [11, 17] | Plant response rating, Russian Thistle [12, 18]
60: Plant response rating, Blackgrass [2, 17]
45: Wheat, Spring plant response rating [1, 14]
70: Plant response rating, Wheat, Spring [1, 15] | Plant response rating, Wheat, Spring [1, 18] | Plant response rating, Blackgrass [2, 20] | Ryegrass, Italian plant response rating [4, 14] | Plant response rating, Oilseed Rape [5, 19] | Plant response rating, Oilseed Rape [5, 20] | Plant response rating (scale of 0 to 100), Pigweed ([6]; Preemergence) | Plant response rating (scale of 0 to 100), Field Poppy ([8]; Preemergence) | Plant response rating, Deadnettle [9, 18] | Windgrass plant response rating [10, 14] | Plant response rating, Windgrass [10, 20]
5: Plant response rating, Oilseed Rape [5, 17]
35: Plant response rating, Wheat, Winter [11, 20] | Plant response rating (scale of 0 to 100), Field Violet ([13]; Preemergence)

COC(=O)Oc1c(C)nn(C)c(=O)c1-c1c(C)sc2c(C)cc(C)cc12 [Compound 81]
55: Plant response rating (scale of 0 to 100), Blackgrass ([2]; Preemergence) | Plant response rating (scale of 0 to 100), Ryegrass, Italian ([4]; Preemergence) | Plant response rating, Deadnettle [9, 19]
0: Wheat, Spring plant response rating [1, 14] | Plant response rating, Wheat, Spring [1, 15] | Plant response rating (scale of 0 to 100), Wheat, Spring ([1]; Preemergence) | Plant response rating, Wheat, Spring [1, 17] | Plant response rating, Wheat, Spring [1, 18] | Plant response rating, Wheat, Spring [1, 20] | Plant response rating (scale of 0 to 100), Radish, Wild ([3]; Preemergence) | Plant response rating (scale of 0 to 100), Oilseed Rape ([5]; Preemergence) | Plant response rating, Oilseed Rape [5, 17] | Plant response rating (scale of 0 to 100), Deadnettle ([9]; Preemergence) | Plant response rating, Deadnettle [9, 17] | Wheat, Winter plant response rating [11, 14] | Plant response rating (scale of 0 to 100), Wheat, Winter ([11]; Preemergence) | Plant response rating, Wheat, Winter [11, 17] | Plant response rating, Wheat, Winter [11, 20] | Plant response rating (scale of 0 to 100), Russian Thistle ([12]; Preemergence) | Plant response rating, Russian Thistle [12, 17]
70: Plant response rating, Blackgrass [2, 18] | Oilseed Rape plant response rating [5, 14] | Plant response rating, Oilseed Rape [5, 20] | Windgrass plant response rating [10, 14]
60: Plant response rating, Blackgrass [2, 17] | Plant response rating, Deadnettle [9, 16] | Plant response rating (scale of 0 to 100), Windgrass ([10]; Preemergence)
95: Plant response rating, Radish, Wild [3, 15] | Plant response rating, Ryegrass, Italian [4, 15] | Plant response rating, Ryegrass, Italian [4, 16] | Plant response rating (scale of 0 to 100), Pigweed ([6]; Preemergence) | Plant response rating (scale of 0 to 100), Chickweed ([7]; Preemergence) | Plant response rating, Windgrass [10, 16] | Plant response rating, Field Violet [13, 19]
40: Plant response rating, Wheat, Spring [1, 19]
5: Plant response rating, Deadnettle [9, 18] | Plant response rating, Wheat, Winter [11, 15] | Plant response rating, Wheat, Winter [11, 16] | Plant response rating, Wheat, Winter [11, 18] | Plant response rating, Wheat, Winter [11, 19]
65: Blackgrass plant response rating [2, 14] | Plant response rating, Ryegrass, Italian [4, 17]
50: Plant response rating, Radish, Wild [3, 17] | Plant response rating, Oilseed Rape [5, 18]
75: Plant response rating, Blackgrass [2, 20] | Radish, Wild plant response rating [3, 14] | Plant response rating, Oilseed Rape [5, 15] | Plant response rating, Windgrass [10, 17] | Russian Thistle plant response rating [12, 14] | Field Violet plant response rating [13, 14] | Plant response rating (scale of 0 to 100), Field Violet ([13]; Preemergence)
15: Deadnettle plant response rating [9, 14] | Plant response rating, Russian Thistle [12, 18]
85: Plant response rating, Blackgrass [2, 16] | Plant response rating, Blackgrass [2, 19] | Ryegrass, Italian plant response rating [4, 14] | Plant response rating, Ryegrass, Italian [4, 18] | Plant response rating, Oilseed Rape [5, 16] | Plant response rating, Russian Thistle [12, 20] | Plant response rating, Field Violet [13, 20]
100: Plant response rating, Radish, Wild [3, 16] | Plant response rating, Ryegrass, Italian [4, 19] | Plant response rating, Oilseed Rape [5, 19] | Pigweed plant response rating [6, 14] | Plant response rating, Pigweed [6, 15] | Plant response rating, Pigweed [6, 16] | Plant response rating, Pigweed [6, 17] | Plant response rating, Pigweed [6, 18] | Plant response rating, Pigweed [6, 19] | Plant response rating, Pigweed [6, 20] | Chickweed plant response rating [7, 14] | Plant response rating, Chickweed [7, 15] | Plant response rating, Chickweed [7, 16] | Plant response rating, Chickweed [7, 17] | Plant response rating, Chickweed [7, 18] | Plant response rating, Chickweed [7, 19] | Plant response rating, Chickweed [7, 20] | Field Poppy plant response rating [8, 14] | Plant response rating, Field Poppy [8, 15] | Plant response rating, Field Poppy [8, 16] | Plant response rating (scale of 0 to 100), Field Poppy ([8]; Preemergence) | Plant response rating, Field Poppy [8, 17] | Plant response rating, Field Poppy [8, 18] | Plant response rating, Field Poppy [8, 19] | Plant response rating, Field Poppy [8, 20] | Plant response rating, Windgrass [10, 19] | Plant response rating, Field Violet [13, 15] | Plant response rating, Field Violet [13, 16] | Plant response rating, Field Violet [13, 18]
35: Plant response rating, Deadnettle [9, 15] | Plant response rating, Deadnettle [9, 20] | Plant response rating, Russian Thistle [12, 19]
90: Plant response rating, Radish, Wild [3, 20] | Plant response rating, Ryegrass, Italian [4, 20] | Plant response rating, Windgrass [10, 15] | Plant response rating, Windgrass [10, 18] | Plant response rating, Russian Thistle [12, 15] | Plant response rating, Russian Thistle [12, 16]
20: Plant response rating, Wheat, Spring [1, 16]
80: Plant response rating, Blackgrass [2, 15] | Plant response rating, Windgrass [10, 20] | Plant response rating, Field Violet [13, 17]
